The data set in a line: recombinant barcode read abundance after kanamycin selection (control-corrected) (log10(CPM+1)); higher = more efficient recombination; sequences stand for … in AGTGCAGAGAAAATCGGCCAGTTTTCTCTGCCTGCAGTCCGCATGCCGT…AGATTTATGCAGCGGACTGCCTTTCTCCCAAAGTGATAAACCGGACAGTATCATGGACCGGTTTTCCCGGTAATCCGTATTTGCAAGGTTGGTTTCACT; site = the 11-nt target. The gist of the method:
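A promoter, a target, a barcode and the first 104 bridge RNA bases under J23119 made up each oligo. Oligos were Gibson-cloned into a vector bearing the other 73 bp and a T7-inducible recombinase, then co-electroporated into E. coli with a donor plasmid and plated in duplicate on chloramphenicol/ampicillin LB agar (control) or chloramphenicol/ampicillin/kanamycin with 0.1 mM IPTG. Recombination efficiency is the averaged, control-corrected counts per million of recombinant-junction barcodes. Reported values are log10(CPM+1).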
For “CATCAGCCTTGGGTTCTAACCTGTTGCCT (site CATTAGCCTAG)”, the “recombinant barcode read abundance (log10)” value came to 0.0622.

With “CATCCGGCTTGGGTTCTAACCTGTTGCCT (site CATCCGACTAG)”, the “recombinant barcode read abundance (log10)” value is 0.317. Regarding “CATCCGGCTTGGGTTCTAACCTGTTGCCT (site CATCCGCCTAG)”, the “recombinant barcode read abundance (log10)” value came to 0.0278. The value for “CATCCGGCTTGGGTTCTAACCTGTTGCCT (site CATCCGGCTAG)” was 0.434; that for “CATCCGGCTTGGGTTCTAACCTGTTGCCT (site CATCCGTCTAG)” was 0.255. The value for “CATCCGTCTTGGGTTCTAACCTGTTGCTT (site CATCCCTCTAA)” was 0.0222; that for “CATCCGTCTTGGGTTCTAACCTGTTGCTT (site CATCCGTCTAA)” was 1.24; that for “CATCCTACTTGGGTTCTAACCTGTTGCAT (site CATCCTACTAT)” was 0.665.

Turning to “CATCCTACTTGGGTTCTAACCTGTTGCAT (site CATCCTACTCG)”, the “recombinant barcode read abundance (log10)” value amounted to 0.0637. As to “CATCCTACTTGGGTTCTAACCTGTTGCGG (site CATCCTACTCC)”, the “recombinant barcode read abundance (log10)” value was 1.98. The figure for “CATCCTACTTGGGTTCTAACCTGTTGCGG (site CATCCTCCTCA)” is 0.0136. The figure for “CATCGATCTTGGGTTCTAACCTGTTGCCT (site CATCGATCTAG)” is 0.558; for “CATCGATCTTGGGTTCTAACCTGTTGCCT (site CATCTATCTAG)” it is 0; for “CATCGCACTTGGGTTCTAACCTGTTGCCT (site CATCGCACTAG)” it is 0.0933.

Take “CATCGCACTTGGGTTCTAACCTGTTGCCT (site CCTCGCACTAG)”: the “recombinant barcode read abundance (log10)” value worked out at 0.289. As to “CATCGCACTTGGGTTCTAACCTGTTGCCT (site CGTCGCACTAG)”, the “recombinant barcode read abundance (log10)” value turned out to be 0.153. Consider “CATCGCACTTGGGTTCTAACCTGTTGCCT (site CTTCGCACTAG)”, for which the “recombinant barcode read abundance (log10)” value amounted to 0.184.

For “CATCGGACTTGGGTTCTAACCTGTTGCAG (site ACATAAGCTAG)”, the “recombinant barcode read abundance (log10)” value came to 0.139. Turning to “CATCGGACTTGGGTTCTAACCTGTTGCAG (site CATCGGACTCT)”, the “recombinant barcode read abundance (log10)” value was 1.48.

On to “CATCGTACTTGGGTTCTAACCTGTTGCAT (site CATCGTACTAT)”, for which the “recombinant barcode read abundance (log10)” value was determined as 0.00546. The figure for “CATCGTACTTGGGTTCTAACCTGTTGCAT (site CCTCGGACTAT)” is 0.0241; for “CATCTACCTTGGGTTCTAACCTGTTGCGG (site CATCTACCTCC)” it is 1.39. The value for “CATCTACCTTGGGTTCTAACCTGTTGCGG (site TTGGATACTTG)” was 0.332; that for “CATCTATCTTGGGTTCTAACCTGTTGCCT (site CATCGATCTAG)” was 0.353. The figure for “CATCTATCTTGGGTTCTAACCTGTTGCCT (site CATCTATCTAG)” is 0.624; for “CATGACCCTTGGGTTCTAACCTGTTGCCT (site CAAGACCCTAG)” it is 0.993; for “CATGACCCTTGGGTTCTAACCTGTTGCCT (site CACGACCCTAG)” it is 0.774. Consider “CATGACCCTTGGGTTCTAACCTGTTGCCT (site CAGGACCCTAG)”, for which the “recombinant barcode read abundance (log10)” value came to 0.85. As for “CATGACCCTTGGGTTCTAACCTGTTGCCT (site CATGACCCTAG)”, the “recombinant barcode read abundance (log10)” value came to 1.67. For the sequence “CATGATACTTGGGTTCTAACCTGTTGCCT (site ATCTTGTCTCC)”, the “recombinant barcode read abundance (log10)” value is 0.0865. As for “CATGATACTTGGGTTCTAACCTGTTGCCT (site CATGATACTAG)”, the “recombinant barcode read abundance (log10)” value was found to be 0.922. The value for “CATGCCTCTTGGGTTCTAACCTGTTGCCG (site CATGCCTCTCG)” was 2.17; that for “CATGCCTCTTGGGTTCTAACCTGTTGCCG (site GCAAGTCCTAC)” was 0.227. Regarding “CATGCGACTTGGGTTCTAACCTGTTGCGT (site AGCATCCCTCA)”, the “recombinant barcode read abundance (log10)” value was 0.234. The value for “CATGCGACTTGGGTTCTAACCTGTTGCGT (site CATGCGACTAC)” was 0.472. The value for “CATGCTACTTGGGTTCTAACCTGTTGCGT (site CATGCTACTAC)” was 0.41; that for “CATGCTACTTGGGTTCTAACCTGTTGCGT (site GATTCTACTAC)” was 0.0988; that for “CATGTACCTTGGGTTCTAACCTGTTGCCT (site AATGTACCTAG)” was 0.0837. The figure for “CATGTACCTTGGGTTCTAACCTGTTGCCT (site CATGTACCTAG)” is 2.02. “CATGTACCTTGGGTTCTAACCTGTTGCCT (site GATGTACCTAG)”: the “recombinant barcode read abundance (log10)” value worked out at 0.145. On to “CATGTACCTTGGGTTCTAACCTGTTGCCT (site TATGTACCTAG)”, for which the “recombinant barcode read abundance (log10)” value was 0.0813. The figure for “CATTAGACTTGGGTTCTAACCTGTTGCCT (site AATTAGACTAG)” is 0.356; for “CATTAGACTTGGGTTCTAACCTGTTGCCT (site CATTAGACTAG)” it is 0.423. The value for “CATTAGACTTGGGTTCTAACCTGTTGCCT (site GATTAGACTAG)” was 0.195; that for “CATTAGACTTGGGTTCTAACCTGTTGCCT (site TATTAGACTAG)” was 0.08; that for “CATTCAACTTGGGTTCTAACCTGTTGCCT (site CATTCAACTAG)” was 0.133. In the case of “CATTCAACTTGGGTTCTAACCTGTTGCCT (site CATTCAACTCG)”, the “recombinant barcode read abundance (log10)” value was 0.115. The figure for “CATTTCACTTGGGTTCTAACCTGTTGCCT (site CATTTCACTAG)” is 0.379; for “CATTTCACTTGGGTTCTAACCTGTTGCCT (site GCCCATGCTCC)” it is 0.0522; for “CATTTCCCTTGGGTTCTAACCTGTTGCTT (site CATTTCCCTAA)” it is 0.122. The value for “CATTTCCCTTGGGTTCTAACCTGTTGCTT (site CATTTCCCTAG)” was 0.246. The figure for “CATTTCTCTTGGGTTCTAACCTGTTGCCT (site AATTTCTCTAG)” is 0.0363; for “CATTTCTCTTGGGTTCTAACCTGTTGCCT (site CATTTCTCTAG)” it is 0.341; for “CATTTCTCTTGGGTTCTAACCTGTTGCCT (site GATTTCTCTAG)” it is 0.116. For the sequence “CATTTCTCTTGGGTTCTAACCTGTTGCCT (site TATTTCTCTAG)”, the “recombinant barcode read abundance (log10)” value came out at 0.00749. The figure for “CCAAAGACTTGGGTTCTAACCTGTTGCTT (site CCAAAGACTAA)” is 0.653; for “CCAAAGACTTGGGTTCTAACCTGTTGCTT (site GGGTCACCTCC)” it is 0. The figure for “CCACACTCTTGGGTTCTAACCTGTTGCCT (site CAACACTCTAG)” is 0.0891; for “CCACACTCTTGGGTTCTAACCTGTTGCCT (site CCACACTCTAG)” it is 1.27; for “CCACACTCTTGGGTTCTAACCTGTTGCCT (site CGACACTCTAG)” it is 0.0247. Take “CCACACTCTTGGGTTCTAACCTGTTGCCT (site CTACACTCTAG)”: the “recombinant barcode read abundance (log10)” value is 0.171. The figure for “CCACATCCTTGGGTTCTAACCTGTTGCCT (site CCACATCCTAG)” is 0.289; for “CCACATCCTTGGGTTCTAACCTGTTGCCT (site GCACACCCTAG)” it is 0.109; for “CCACCGTCTTGGGTTCTAACCTGTTGCCT (site CCACAGTCTAG)” it is 0.171. On to “CCACCGTCTTGGGTTCTAACCTGTTGCCT (site CCACCGTCTAG)”, for which the “recombinant barcode read abundance (log10)” value worked out at 0.156. In the case of “CCACCGTCTTGGGTTCTAACCTGTTGCCT (site CCACGGTCTAG)”, the “recombinant barcode read abundance (log10)” value amounted to 0.177. Regarding “CCACCGTCTTGGGTTCTAACCTGTTGCCT (site CCACTGTCTAG)”, the “recombinant barcode read abundance (log10)” value is 0.175. The value for “CCACGGTCTTGGGTTCTAACCTGTTGCCT (site CCACAGTCTAG)” was 0.161; that for “CCACGGTCTTGGGTTCTAACCTGTTGCCT (site CCACCGTCTAG)” was 0.0249. Consider “CCACGGTCTTGGGTTCTAACCTGTTGCCT (site CCACGGTCTAG)”, for which the “recombinant barcode read abundance (log10)” value came out at 1.1. Consider “CCACGGTCTTGGGTTCTAACCTGTTGCCT (site CCACTGTCTAG)”, for which the “recombinant barcode read abundance (log10)” value came out at 0.033. The figure for “CCAGAAGCTTGGGTTCTAACCTGTTGCCT (site CCAGAAGCTAG)” is 0.179; for “CCAGAAGCTTGGGTTCTAACCTGTTGCCT (site CCAGCAGCTAG)” it is 0.222. The figure for “CCAGAAGCTTGGGTTCTAACCTGTTGCCT (site CCAGGAGCTAG)” is 0.407. Take “CCAGAAGCTTGGGTTCTAACCTGTTGCCT (site CCAGTAGCTAG)”: the “recombinant barcode read abundance (log10)” value stood at 0.0645.

Consider “CCAGGACCTTGGGTTCTAACCTGTTGCCT (site CCAGGACCTAG)”, for which the “recombinant barcode read abundance (log10)” value was determined as 2.2.

With “CCAGGACCTTGGGTTCTAACCTGTTGCCT (site CGAGGACCTAG)”, the “recombinant barcode read abundance (log10)” value was found to be 0.291.
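Note: IS621 recombinase and bridge RNA in Escherichia coli cells.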
